Experimental data: PubChem BioAssay AID1963860 (Molecular Pharmacology Branch, DTP, NCI, 2024)

Test system: CN0375-F725-PDC KRAS spheroid viability
Test: Anticancer human tumor CN0375-F725-PDC patient-derived colon carcinoma cell line growth inhibition [KRAS2]
Settings: spheroids with HUVEC and MSC; for IC50: curve of first compound; for viability, T/C: stronger effect = lower value
Procedure, shortened: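 KRAS-mutant tumor cells were grown as spheroids with HUVEC endothelial cells and human MSCs as stroma. Targeted agents were tested alone and with KRAS pathway inhibitors. Doses started at or near clinical Cmax, or 10 microM, descending half-log.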

[1] = second compound 0.1 µM, first compound 0.0001 µM
[2] = second compound 0.1 µM, first compound 0.000316 µM
[3] = second compound 0.1 µM, first compound 0.001 µM
[4] = second compound 0.1 µM, first compound 0.00316 µM
[5] = second compound 0.1 µM, first compound 0.01 µM
[6] = second compound 0.1 µM, first compound 0.0316 µM
[7] = second compound 0.316 µM, first compound 0.0001 µM
[8] = second compound 0.316 µM, first compound 0.000316 µM
[9] = second compound 0.316 µM, first compound 0.001 µM
[10] = second compound 0.316 µM, first compound 0.00316 µM
[11] = second compound 0.316 µM, first compound 0.01 µM
[12] = second compound 0.316 µM, first compound 0.0316 µM
[13] = second compound 1 µM, first compound 0.0001 µM
[14] = second compound 1 µM, first compound 0.000316 µM
[15] = second compound 1 µM, first compound 0.001 µM
[16] = second compound 1 µM, first compound 0.00316 µM
[17] = second compound 1 µM, first compound 0.01 µM
[18] = second compound 1 µM, first compound 0.0316 µM
[19] = second compound 3.16 µM, first compound 0.0001 µM
[20] = second compound 3.16 µM, first compound 0.000316 µM
[21] = second compound 3.16 µM, first compound 0.001 µM
[22] = second compound 3.16 µM, first compound 0.00316 µM
[23] = second compound 3.16 µM, first compound 0.01 µM
[24] = second compound 3.16 µM, first compound 0.0316 µM
[25] = second compound 0.1 µM, first compound 0.1 µM
[26] = second compound 0.1 µM, first compound 0.316 µM
[27] = second compound 0.1 µM, first compound 1 µM
[28] = second compound 0.1 µM, first compound 3.16 µM
[29] = second compound 0.1 µM, first compound 10 µM
[30] = second compound 0.316 µM, first compound 0.1 µM
[31] = second compound 0.316 µM, first compound 0.316 µM
[32] = second compound 0.316 µM, first compound 1 µM
[33] = second compound 0.316 µM, first compound 3.16 µM
[34] = second compound 0.316 µM, first compound 10 µM
[35] = second compound 1 µM, first compound 0.1 µM
[36] = second compound 1 µM, first compound 0.316 µM
[37] = second compound 1 µM, first compound 1 µM
[38] = second compound 1 µM, first compound 3.16 µM
[39] = second compound 1 µM, first compound 10 µM
[40] = second compound 3.16 µM, first compound 0.1 µM
[41] = second compound 3.16 µM, first compound 0.316 µM
[42] = second compound 3.16 µM, first compound 1 µM
[43] = second compound 3.16 µM, first compound 3.16 µM
[44] = second compound 3.16 µM, first compound 10 µM
[45] = second compound 10 µM, first compound 0.0316 µM
[46] = second compound 10 µM, first compound 0.1 µM
[47] = second compound 10 µM, first compound 0.316 µM
[48] = second compound 10 µM, first compound 1 µM
[49] = second compound 10 µM, first compound 3.16 µM
[50] = second compound 10 µM, first compound 10 µM
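Note: spheroids exposed to agents for 7 days.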

`CC(=O)Nc1cccc(-n2c(=O)n(C3CC3)c(=O)c3c(Nc4ccc(I)cc4F)n(C)c(=O)c(C)c32)c1` + C=CC(=O)N1CCN(c2nc(OCC3CCCN3C)nc3c2CCN(c2cccc4cccc(C)c24)C3)CC1CC#N gave an IC50 (second compound 0.0316 µM) of 5.65 nM, an IC50 (second compound 0.1 µM) of 4.91 nM and an IC50 (second compound 0.316 µM) of 3.19 nM. For the same compound, the IC50 (second compound 1 µM) was 1.62 nM, the IC50 (second compound 3.16 µM) was less than 0.1 nM and the viability, T/C (second compound 0.0316 µM, first compound 0.0001 µM) was 91%. For the same compound, the viability, T/C (second compound 0.0316 µM, first compound 0.000316 µM) was 85.7%, the viability, T/C (second compound 0.0316 µM, first compound 0.001 µM) was 67.1% and the viability, T/C (second compound 0.0316 µM, first compound 0.00316 µM) was 53.3%. The viability, T/C (second compound 0.0316 µM, first compound 0.01 µM) was 48.6%, the viability, T/C (second compound 0.0316 µM, first compound 0.0316 µM) was 33.9% and the viability, T/C [1] was 92.3%. It also gave a viability, T/C [2] of 86%, a viability, T/C [3] of 66.2% and a viability, T/C [4] of 54.2%. It also gave a viability, T/C [5] of 44.5%, a viability, T/C [6] of 30.7% and a viability, T/C [7] of 86.8%. The viability, T/C [8] was 77.7%, the viability, T/C [9] was 61.6% and the viability, T/C [10] was 50.8%. The viability, T/C [11] was 38.3%, the viability, T/C [12] was 28.1% and the viability, T/C [13] was 81.9%. It also gave a viability, T/C [14] of 73.1%, a viability, T/C [15] of 53.7% and a viability, T/C [16] of 41.2%. It also gave a viability, T/C [17] of 35.7%, a viability, T/C [18] of 25.3% and a viability, T/C [19] of 19.1%. It also gave a viability, T/C [20] of 20.7%, a viability, T/C [21] of 9.33% and a viability, T/C [22] of 12.7%. It also gave a viability, T/C [23] of 1.9% and a viability, T/C [24] of 7.1%.
For `CC1(C)CCC(CN2CCN(c3ccc(C(=O)NS(=O)(=O)c4ccc(NCC5CCOCC5)c([N+](=O)[O-])c4)c(Oc4cnc5[nH]ccc5c4)c3)CC2)=C(c2ccc(Cl)cc2)C1` + CC1OCC2(CCN(c3cnc(Sc4ccnc(N)c4Cl)c(N)n3)CC2)C1N, the IC50 (second compound 0.1 µM) was 3490 nM, the IC50 (second compound 0.316 µM) was 2760 nM and the IC50 (second compound 1 µM) was 2600 nM. For the same compound, the IC50 (second compound 3.16 µM) was 2130 nM, the IC50 (second compound 10 µM) was 1610 nM and the viability, T/C [6] was 103%. It also gave a viability, T/C [25] of 100%, a viability, T/C [26] of 104% and a viability, T/C [27] of 103%. It also gave a viability, T/C [28] of 51.6%, a viability, T/C [29] of 31.6% and a viability, T/C [12] of 95.4%. The viability, T/C [30] was 100%, the viability, T/C [31] was 94.6% and the viability, T/C [32] was 95.8%. The viability, T/C [33] was 43.8%, the viability, T/C [34] was 25.1% and the viability, T/C [18] was 90.7%. The viability, T/C [35] was 91.5%, the viability, T/C [36] was 89.9% and the viability, T/C [37] was 86.3%. It also gave a viability, T/C [38] of 42.5%, a viability, T/C [39] of 22.2% and a viability, T/C [24] of 84.4%. It also gave a viability, T/C [40] of 87.1%, a viability, T/C [41] of 87.4% and a viability, T/C [42] of 82.8%. The viability, T/C [43] was 32.9%, the viability, T/C [44] was 13.9% and the viability, T/C [45] was 67.7%. For the same compound, the viability, T/C [46] was 73.2%, the viability, T/C [47] was 77.2% and the viability, T/C [48] was 69.6%. For the same compound, the viability, T/C [49] was 22% and the viability, T/C [50] was 8.8%.
Compound `COc1cc2nccc(Oc3ccc(NC(=O)C4(C(=O)Nc5ccc(F)cc5)CC4)cc3)c2cc1OC` + CC1OCC2(CCN(c3cnc(Sc4ccnc(N)c4Cl)c(N)n3)CC2)C1N has an IC50 (second compound 0.1 µM) greater than 10000 nM, an IC50 (second compound 0.316 µM) of 5810 nM and an IC50 (second compound 1 µM) of 2580 nM. It also gave an IC50 (second compound 3.16 µM) of 1880 nM, an IC50 (second compound 10 µM) of 644 nM and a viability, T/C [6] of 104%. It also gave a viability, T/C [25] of 94.5%, a viability, T/C [26] of 83.3% and a viability, T/C [27] of 69.3%. For the same compound, the viability, T/C [28] was 56.3%, the viability, T/C [29] was 63.2% and the viability, T/C [12] was 99.5%. The viability, T/C [30] was 94.6%, the viability, T/C [31] was 85.9% and the viability, T/C [32] was 68.4%. The viability, T/C [33] was 44.6%, the viability, T/C [34] was 53.5% and the viability, T/C [18] was 86.3%. It also gave a viability, T/C [35] of 84.7%, a viability, T/C [36] of 75.5% and a viability, T/C [37] of 67.9%. It also gave a viability, T/C [38] of 38.4%, a viability, T/C [39] of 53.9% and a viability, T/C [24] of 84.4%. It also gave a viability, T/C [40] of 78.9%, a viability, T/C [41] of 71.7% and a viability, T/C [42] of 60.7%. The viability, T/C [43] was 36.7%, the viability, T/C [44] was 46.8% and the viability, T/C [45] was 66.9%. The viability, T/C [46] was 69.3%, the viability, T/C [47] was 57.9% and the viability, T/C [48] was 46.2%. For the same compound, the viability, T/C [49] was 25.9% and the viability, T/C [50] was 31.2%.
`CC(=O)Nc1cccc(-n2c(=O)n(C3CC3)c(=O)c3c(Nc4ccc(I)cc4F)n(C)c(=O)c(C)c32)c1` + COc1cc2nc(C)nc(NC(C)c3cc(N)cc(C(F)(F)F)c3)c2cc1OC1CCOC1 gave an IC50 (second compound 0.1 µM) of 4.1 nM, an IC50 (second compound 0.316 µM) of 3.26 nM and an IC50 (second compound 1 µM) of 1.85 nM. It also gave an IC50 (second compound 3.16 µM) of 0.913 nM, an IC50 (second compound 10 µM) of less than 0.1 nM and a viability, T/C [1] of 88.3%. For the same compound, the viability, T/C [2] was 85.3%, the viability, T/C [3] was 65% and the viability, T/C [4] was 51.6%. It also gave a viability, T/C [5] of 43.9%, a viability, T/C [6] of 30.9% and a viability, T/C [7] of 84.9%. For the same compound, the viability, T/C [8] was 77.5%, the viability, T/C [9] was 60.7% and the viability, T/C [10] was 49.7%. The viability, T/C [11] was 41.9%, the viability, T/C [12] was 31.6% and the viability, T/C [13] was 82.6%. For the same compound, the viability, T/C [14] was 70.9%, the viability, T/C [15] was 54.6% and the viability, T/C [16] was 44.1%. The viability, T/C [17] was 38.4%, the viability, T/C [18] was 29.8% and the viability, T/C [19] was 75.4%. It also gave a viability, T/C [20] of 62.4%, a viability, T/C [21] of 49.3% and a viability, T/C [22] of 36.4%. For the same compound, the viability, T/C [23] was 33.5%, the viability, T/C [24] was 25.4% and the viability, T/C (second compound 10 µM, first compound 0.0001 µM) was 14%. For the same compound, the viability, T/C (second compound 10 µM, first compound 0.000316 µM) was 13.4%, the viability, T/C (second compound 10 µM, first compound 0.001 µM) was 9.44% and the viability, T/C (second compound 10 µM, first compound 0.00316 µM) was 3.96%. It also gave a viability, T/C (second compound 10 µM, first compound 0.01 µM) of 6.23% and a viability, T/C [45] of 1.76%.
